Experimental data reported in patent US20100168468A1, “WRINKLE-PREVENTING AND IMPROVING COMPOSITION” (Kyowa Hakko Kirin Co., Ltd., priority 2005, published 2010).

Tested on: Fibroblasts
Assay: Production amount of type I collagen by fibroblasts
Format: cell-based
Details: cultured for two days in DMEM without growth factors; amount without sarcosine set as 100 (FIG. 4)
Description: The production of collagen was measured in the following method. Fibroblasts were plated on 24 wells, and were allowed to stand while culturing until the cells fully adhered. Then, the culture liquid (DMEM supplemented with growth factors) was replaced with a medium (DMEM without growth factors) to which the drug (sarcosine) was added to the desired concentration, and cultured for two days. The culture supernatant was removed, and the production amount of type I collagen was determined using the TAKARA's Procollagen type I-Cppeptide EIA KIT. Cell counts were determined by measuring the amount of DNA using Hoechst and then converting it to a cell count. Finally the production amount of collagen was compared as the production amount of collagen per unit cell.

CNCC(=O)O [sarcosine]
production amount of collagen per unit cell: increases with sarcosine addition in dose dependent manner
